In patent publication US20130178653A1, “NOVEL PRECURSOR OF RADIOLABELLED CHOLINE ANALOG COMPOUNDS” (IMPERIAL COLLEGE, priority 2010, published 2013):
Read-outs that look alike come from different tables or passages of the source. One block for each compound: values may come before it.

Columns and labels:
HCT116 tumors = test: Effect of PD0325901 treatment in HCT116 tumor bearing mice ([^18F]D4-FCH-PET, tumor size); type: in vivo
Experimental: Dynamic [^18F]FCH and [^18F]D4-FCH imaging scans were carried out on a dedicated small animal PET scanner, quad-HIDAC (Oxford Positron Systems). The features of this instrument have been described previously (Barthel, H., et al., Cancer Res 2003; 63(13):3791-8). For scanning the tail veins, vehicle- or drug-treated mice were cannulated after induction of anesthesia (isofluorane/O2/N2O). The animals were placed within a thermostatically controlled jig (calibrated to provide a rectal temperature of ˜37° C.) and positioned prone in the scanner. [^18F]FCH or [^18F]D4-FCH (2.96-3.7 MBq) was injected via the tail vein cannula and scanning commenced. Dynamic scans were acquired in list mode format over a 60 min period as reported previously (Leyton, J., et al., Cancer Research 2006; 66(15):7621-9). The acquired data were sorted into 0.5 mm sinogram bins and 19 time frames (0.5×0.5×0.5 mm voxels; 4×15, 4×60, and 11×300 s) for image reconstruction, which was done by filtered back-projection using a two-dimensional Hamming filter (cutoff 0.6). The image data sets were visualized using the Analyze software (version 6.0; Biomedical Imaging Resource, Mayo Clinic). Cumulative images of 30 to 60 min dynamic data were used for visualization of radiotracer uptake and to draw regions of interest. Regions of interest were defined manually on five adjacent tumor regions (each 0.5 mm thickness). Dynamic data from these slices were averaged for each tissue (liver, kidney, muscle, urine, and tumor) and at each of the 19 time points to obtain time versus radioactivity curves. Corresponding whole body time versus radioactivity curves representing injected radioactivity were obtained by adding together radioactivity in all 200×160×160 reconstructed voxels. Tumor radioactivity was normalized to whole-body radioactivity and expressed as percent injected dose per voxel (% ID/vox). The normalized uptake of radiotracer at 60 min (% ID/vox60) was used for subsequent comparisons. […] The area under the curve was calculated as the integral of % ID/vox from 0 to 60 min

HCT116 cells = test: Effect of PD0325901 on [^18F]D4-FCH metabolism and CHKA expression in HCT116 cells in culture; type: cell-based, human
Experimental: HCT116 cells were grown in T150 flasks in triplicate until they were 70% confluent and then treated with vehicle (1% DMSO in growth medium) or 1 μmol/L PD0325901 in vehicle for 24 h. Cells were pulsed for 1 h with 1.1 MBq of either [^18F]D4-FCH or [^18F]FCH. The cells were washed three times in ice-cold phosphate buffered saline (PBS), scraped into 5 mL PBS, and centrifuged at 500×g for 3 min and then resuspended in 2 mL ice-cold methanol for HPLC analysis as described above for tissue samples. […] Briefly, HCT116 cells were grown in 100 mm dishes in triplicate and incubated with 5.0 MBq [^18F]FCH for 60 min at 37° C. to form the putative [^18F]FCH-phosphate. The cells were washed with 5 mL ice-cold PBS twice and then scraped and centrifuged at 750×g (4° C., 3 min) in 5 mL PBS. Cells were homogenized in 1 mL of 5 mmol/L Tris-HCl (pH 7.4) containing 50% (v/v) glycerol, 0.5 mmol/L MgCl2, and 0.5 mmol/L ZnCl2 and incubated with 10 units bacterial (type III) alkaline phosphatase (Sigma) at 37° C. in a shaking water bath for 30 min to dephosphorylate the [^18F]FCH-phosphate. The reaction was terminated by adding ice-cold methanol. Samples were processed as per plasma above and analyzed by radio-HPLC. Control experiments were done without alkaline phosphatase. […]

choline kinase A (CHKA) = test: Choline kinase A expression in HCT116 tumors by western blotting; type: in vivo, mice; conditions: day 10, 25 mg/kg daily orally
Experimental: HCT116 tumors from mice that were injected with PD0325901 (25 mg/kg daily for 10 days, orally) or vehicle were analyzed for CHKA expression by western blotting. β-actin was used as the loading control. (b) Summary densitometer measurements for CHKA expression expressed as a ratio to β-actin. The results are the mean ratios±SE; n=3, * P=0.05.
Size-matched HCT116 tumor bearing mice were randomized to receive daily treatment by oral gavage of vehicle (0.5% hydroxypropyl methylcellulose+0.2% Tween 80) or 25 mg/kg (0.005 mL/g mouse) of the mitogenic extracellular kinase inhibitor, PD0325901, prepared in vehicle. [^18F]D4-FCH-PET scanning was done after 10 daily treatments with the last dose administered 1 h before scanning. […] The results are illustrated in FIGS. 18 and 19.
To understand further the mechanisms regulating [^18F]D4-FCH uptake with drug treatment, changes in CHKA expression in PD0325901 and vehicle-treated tumors excised after PET scanning were assessed.

[1] = tested on: HCT116 human colon xenografts; conditions: mouse, in vivo
Experimental: Time course biodistribution was carried out for [^18F]fluoromethylcholine, [^18F]fluoromethyl-[1-^2H2]choline and [^18F]fluoromethyl-[1,2-^2H4]choline in nude mice bearing HCT116 human colon xenografts.
Human colon (HCT116) tumors were grown in […] (Harlan, Bicester, United Kingdom) as previously reported (Leyton, J., et al., Cancer Research 2005; 65(10):4202-10). Tumor dimensions were measured continuously using a caliper and tumor volumes were calculated by the equation: volume=(π/6)×a×b×c, where a, b, and c represent three orthogonal axes of the tumor. Mice were used when their tumors reached approximately 100 mm^3. [^18F]Fluoromethylcholine, [^18F]fluoromethyl-[1-^2H2]choline and [^18F]fluoromethyl-[1,2-^2H4]choline (˜3.7 MBq) were each injected via the tail vein into awake untreated tumor bearing mice. The mice were sacrificed at pre-determined time points (2, 30 and 60 min) after radiotracer injection under terminal anesthesia to obtain blood, plasma, tumor, heart, lung, liver, kidney and muscle. Tissue radioactivity was determined on a gamma counter (Cobra II Auto-Gamma counter, Packard Biosciences Co, Pangbourne, UK) and decay corrected. Data were expressed as percent injected dose per gram of tissue.

[2] = mouse, in vivo; for form of radioactivity in tumors: iv
Experimental: Metabolite analysis of tissues including liver, kidney and tumor by HPLC was also accomplished. […] Choline and its metabolites lack any UV chromophore to permit presentation of chromatograms of the cold unlabelled compound simultaneously with the radioactivity chromatograms.
Liver, kidney, and tumor samples were obtained at 30 min. All samples were snap-frozen in liquid nitrogen. […] To ˜0.2 mL plasma was added ice-cold methanol (1.5 mL). The mixture was then centrifuged (3 min, 15,493×g, 4jC). […] Liver, kidney, and tumor samples were homogenized in ice-cold methanol (1.5 mL) using an IKA Ultra-Turrax T-25 homogenizer and subsequently treated as per plasma samples (above). All samples were analyzed by radio-HPLC on an Agilent 1100 series HPLC system (Agilent Technologies) equipped with a γ-RAM Model 3 γ-detector (IN/US Systems) and Laura 3 software (Lablogic). The stationary phase comprised a Waters μBondapak C18 reverse-phase column (300×7.8 mm) (Waters, Milford, Mass., USA). Samples were analyzed using a mobile phase comprising solvent A (acetonitrile/water/ethanol/acetic acid/1.0 mol/L ammonium acetate/0.1 mol/L sodium phosphate; 800/127/68/2/3/10) and solvent B (acetonitrile/water/ethanol/acetic acid/1.0 mol/L ammonium acetate/0.1 mol/L sodiumphosphate; 400/400/68/44/88/10) with a gradient of 0% B for 6 min, then 0>100% B in 10 min, 100% B for 0.5 min, 100>0% B in 1.5 min then 0% B for 2 min, delivered at a flow rate of 3 mL/min

[3] = tested on: human melanoma SKMEL-28 xenografts; conditions: mouse, in vivo
Experimental: (§1) Dynamic [^18F]FCH and [^18F]D4-FCH imaging scans were carried out on a dedicated small animal PET scanner, quad-HIDAC (Oxford Positron Systems). The features of this instrument have been described previously (Barthel, H., et al., Cancer Res 2003; 63(13):3791-8). For scanning the tail veins, vehicle- or drug-treated mice were cannulated after induction of anesthesia (isofluorane/O2/N2O). The animals were placed within a thermostatically controlled jig (calibrated to provide a rectal temperature of ˜37° C.) and positioned prone in the scanner. [^18F]FCH or [^18F]D4-FCH (2.96-3.7 MBq) was injected via the tail vein cannula and scanning commenced. Dynamic scans were acquired in list mode format over a 60 min period as reported previously (Leyton, J., et al., Cancer Research 2006; 66(15):7621-9). The acquired data were sorted into 0.5 mm sinogram bins and 19 time frames (0.5×0.5×0.5 mm voxels; 4×15, 4×60, and 11×300 s) for image reconstruction, which was done by filtered back-projection using a two-dimensional Hamming filter (cutoff 0.6). The image data sets were visualized using the Analyze software (version 6.0; Biomedical Imaging Resource, Mayo Clinic). Cumulative images of 30 to 60 min dynamic data were used for visualization of radiotracer uptake and to draw regions of interest. Regions of interest were defined manually on five adjacent tumor regions (each 0.5 mm thickness). Dynamic data from these slices were averaged for each tissue (liver, kidney, muscle, urine, and tumor) and at each of the 19 time points to obtain time versus radioactivity curves. Corresponding whole body time versus radioactivity curves representing injected radioactivity were obtained by adding together radioactivity in all 200×160×160 reconstructed voxels. Tumor radioactivity was normalized to whole-body radioactivity and expressed as percent injected dose per voxel (% ID/vox). The normalized uptake of radiotracer at 60 min (% ID/vox60) was used for subsequent comparisons. The average of the normalized maximum voxel intensity across five slices of tumor % IDvox60max was also use for comparison to account for tumor heterogeneity and existence of necrotic regions in tumor. The area under the curve was calculated as the integral of % ID/vox from 0 to 60 min

[4] = for parent compound still present after potassium permanganate treatment: 1 hour post-treatment, KMnO4, Na2CO3, H2O, rt, radio-HPLC
[5] = mouse, in vivo
choline oxidase [6] = test: Enzymatic oxidation study using choline oxidase; conditions: 60 minute time point, room temperature, pH 7
[7] = mouse, in vivo, 60 min
Experimental: as §1

choline oxidase [8] = conditions: 60 min, 1.76 MBq/mL, pH 7
[9] = Oxidation potential in vivo (radio-HPLC of mouse plasma after i.v. injection); conditions: 15 min after i.v. injection into mice

Structure (SMILES): O=C(NOC[C@H](O)CO)c1ccc(F)c(F)c1Nc1ccc(I)cc1F [PD0325901]
- [^18F]D4-FCH radiotracer retention in treated tumors (HCT116 tumors; 10 daily treatments 25 mg/kg, HCT116 tumors, PET): marked reduction in radiotracer retention
- imaging variables (% ID/vox60, % ID/vox60max, AUC) of [^18F]D4-FCH (HCT116 tumors; after 10 days of drug treatment, HCT116 tumors): decreased
- reduction in tumor size compared to the pretreatment group (HCT116 tumors; day 10, 25 mg/kg daily oral, HCT116 xenograft): 12.2%
- [^18F]D4-FCH-phosphocholine formation (HCT116 cells; 1 μmol/L for 24 h, 60-min uptake of [^18F]D4-FCH): significantly inhibited
- CHKA expression in vitro (HCT116 cells; exponentially growing cells): reduction of CHKA expression
- CHKA protein expression in tumors (choline kinase A (CHKA)): significant reduction

Structure (SMILES): [2H]C([2H])(O)C([2H])([2H])[N+](C)(C)C[18F] [[^18F]D4-FCH, [^18F]fluoromethyl-[1,2-^2H4]choline]
- tumor uptake at the later time points [1]: pronounced increase
- kidney radioactivity in the form of betaine [2]: 20.6±6.2%
- kidney radioactivity present as phosphocholine [2]: 60.6±3.7%
- liver radioactivity present as phosphocholine [2]: high proportion
- unknown metabolite (possibly the aldehyde intermediate) in liver [2]: 7.4±2.3%
- unknown metabolite in kidney [2]: 8.8±0.2%
- form of radioactivity in tumors [2]: mainly in the form of phosphocholine
- %IDvox60max (average of maximum pixel % ID/vox60 across 5 slices) compared to [^18F]FCH [3]: significantly higher
- tumor area under the time versus radioactivity curve (AUC) compared to FCH [3]: higher
- proportion of parent compound remaining (radio-HPLC), relative to [^18F]fluoromethylcholine ([4]; 20 min): greater proportion of the parent compound remaining
- parent compound still present after potassium permanganate treatment [4]: ~80%
- percentage of parent compound in plasma compared to [^18F]FCH [5]: consistently higher
- conversion of parent tracer to betaine metabolite in plasma ([5]; iv): 40%
- parent radiotracer present (radio-HPLC distribution of choline species) (choline oxidase [6]): 29±4%

- liver radioactivity present as phosphocholine [2]: high proportion
- unknown metabolite (possibly the aldehyde intermediate) in liver [2]: not found
- kidney radioactivity in the form of betaine ([2]; 30 min): 53.5±5.3%
- kidney radioactivity present as phosphocholine ([2]; 30 min): 31.8±9.8%
- unknown metabolite in kidney ([2]; 30 min): 3.3±0.6%
- form of radioactivity in tumors ([2]; 30 min): significant levels of [^18F]FCH-betaine
- bladder (urine) radioactivity, % ID/vox60 [7]: 6.70±0.71 % ID/vox
- kidney radioactivity, % ID/vox60 [7]: 15.97±4.65 % ID/vox
- liver radioactivity, % ID/vox60 [7]: 18.75±4.28 % ID/vox
- tumor radiotracer uptake, % ID/vox60 ([3]; 60 min): 5.50±0.49 % ID/vox
- parent compound still present after potassium permanganate treatment [4]: less than 40%
- parent radiotracer present (radio-HPLC distribution of choline species) (choline oxidase [8]): 11±8%
- conversion of parent tracer to betaine metabolite in plasma [9]: 80%
Structure (SMILES): C[N+](C)(C[18F])CCO [[^18F]FCH, [^18F]Fluoromethylcholine]
